Results: PubChem BioAssay (NCI)
Where “and” joins values, the source holds several entries; their conditions need not be identical. Equal entries are not always repeated.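 48-hour exposure; five concentrations; linearly interpolated endpoints. GI50 marks 50% less growth. Definition used: TGI = concentration required for complete inhibition of growth.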

tested on: NCI-H23 lung; experiment: inhibition of tumour cell growth, NCI panel, 48 h

Question: With `COc1cc(C(=O)N(Cc2cccnc2)C(=S)N(Cc2cccnc2)C(=O)c2cc(OC)c(OC)c(OC)c2)cc(OC)c1OC` as the molecule, how does the TGI read?
Answer: > 100 µM

Question: For `COc1cc(CNCc2cc(OC)c(OC)c(OC)c2)cc(OC)c1OC`, which TGI is on record?
Answer: > 10 µM

Question: Which TGI does the source give for `CCOC(=O)CNc1c(OCc2ccccc2)c(=O)c1=O` here?
Answer: > 100 µM

Question: Which TGI does the source give for `Oc1c(CN2CCOCC2)ccc2cccnc12` here?
Answer: > 10 µM

Question: Which TGI does the source give for `Cc1ccc2c(c1)C(C(=O)N[C@@H]1C(=O)N3[C@@H]1SC(C)(C)[C@@H]3C(=O)O)OCCC2` (some centres undefined) here?
Answer: > 100 µM

Question: With `CCOCc1nc2c(OC)cc(-c3nc4ccc(N5CCN(C)CC5)cc4[nH]3)c(OC)c2[nH]1` as the molecule, how does the TGI read?
Answer: > 100 µM

Question: With `CON(C)C(=O)CNC(=O)OCC1c2ccccc2-c2ccccc21` as the molecule, how does the TGI read?
Answer: > 100 µM

Question: For `CCOC(=O)C(=Cc1[nH]c2ccccc2c1-c1c[nH]c2ccccc12)C(=O)OCC`, which TGI is on record?
Answer: 35.4 µM

Question: How did the TGI turn out when `CSc1ncnc2c1ncn2C1CC(Oc2ccc(C)cc2)C(COc2ccc(C)cc2)O1` (centres undefined) was run?
Answer: > 100 µM

Question: How did the TGI turn out when `Cc1ccc(N=Nc2c(O)ccc3cc(S(=O)(=O)O)cc(S(=O)(=O)O)c23)cc1` was run?
Answer: > 100 µM

Question: `O=C(O)Cc1cccc2c(=O)c3ccccc3oc12` was tested. Which TGI did it give?
Answer: > 100 µM

Question: `CCOC(=O)N/N=C(/N)c1cccc([N+](=O)[O-])c1` was tested. Which TGI did it give?
Answer: > 100 µM

Question: With `COC1=C(OC)C(=O)C(Cc2c(C)nc3sc(C)cn23)=C(C)C1=O` as the molecule, how does the TGI read?
Answer: 37.2 µM

Question: Which TGI does the source give for `CC(=O)OC(/C=C/c1ccccc1)=C(OC(C)C)/C1=C(\c2ccccc2)SCCCSC1=O` here?
Answer: > 100 µM

Question: `COc1cccc(-c2ccc3c4c2O[C@H]2C(=O)CC[C@@]5(O)[C@@H](C3)N(CC3CC3)CC[C@]425)c1` was tested. Which TGI did it give?
Answer: 64.8 µM

Question: `O=C1/C(=C/c2ccc([N+](=O)[O-])cc2)C(=O)N(c2ccccc2)C1c1ccccc1` (centres undefined) was tested. Which TGI did it give?
Answer: > 10 µM

Question: For `NC(N)=NCCC[C@H](N)C(=O)NCC(=O)N[C@@H](CC(=O)O)c1ncc(NC(=O)C(F)(F)F)o1`, which TGI is on record?
Answer: > 25 µM

Question: Which TGI does the source give for `Cc1cc(S(=O)(=O)N=C2N(Cc3ccccc3)CCN2Cc2ccccc2)c(S)cc1Cl` here?
Answer: > 100 µM

Question: Which TGI does the source give for `Oc1ccc(-c2nc(-c3cccnc3)c(-c3ccc(Cl)cc3)[nH]2)cc1` here?
Answer: 25.9 µM

Question: Which results are given for `CSc1ccc2c(cc1=O)[C@@H](NC(=O)c1ccc(N)cc1)CCc1cc(O)c(O)c(O)c1-2`?
Answer: GI50: 22.3 µM and 10.4 µM; TGI: 50.9 µM and 69.7 µM

Question: How did the TGI turn out when `CN1CCC(O)(C(C)(C)C)CC1` was run?
Answer: > 100 µM

Question: With `Cn1cc(NC(=O)c2cc(NC(=O)CN=C(N)N)cn2C)cc1C(=O)NCCC(=N)N` as the molecule, how does the TGI read?
Answer: > 100 µM

Question: How did the TGI turn out when `CCOC(=O)c1cc(C(O)P2(=O)N(CC(C)(C)C)[C@@H]3CCCC[C@H]3N2CC(C)(C)C)cn1C(=O)OC(C)(C)C` (some centres undefined) was run?
Answer: 68.3 µM

Question: For `COc1cc(/C=C2/C[C@H]3[C@@H]4CC=C5C[C@@H](O)CC[C@]5(C)[C@H]4CC[C@]3(C)NC2=O)cc(OC)c1OC`, which TGI is on record?
Answer: > 62.7 µM

Question: How did the TGI turn out when `O=C1C=C(C2=CC(=O)C(=O)c3ccccc32)c2ccccc2C1=O` was run?
Answer: > 100 µM

Question: For `C(=Nc1ccc(-c2nc3ccccc3[nH]2)cc1)c1cccs1`, which TGI is on record?
Answer: > 100 µM

Question: Which TGI does the source give for `C[N+](C)(C)CC1CCCCCCCCCCC1=O` (centres undefined) here?
Answer: > 100 µM

Question: With `Cn1c2c(c3ccccc31)CC1c3c(c4ccccc4n3C)CC21` (centres undefined) as the molecule, how does the TGI read?
Answer: > 100 µM

Question: For `Cc1ccc(/C=C2\CCCc3ccccc3C2=O)cc1`, which TGI is on record?
Answer: 89.1 µM

Question: How did the TGI turn out when `COCN(CCC1=CCCCC1)C(=O)OC` was run?
Answer: > 100 µM

Question: Which TGI does the source give for `NN/C(=N\S(=O)(=O)c1cc2ccccc2s1)Nc1ccc(Cl)cc1` here?
Answer: 41.4 µM

tested on: COLO 205 colon; experiment: inhibition of tumour cell growth, NCI panel, 48 h

Question: How did the TGI turn out when `COc1cc(C(=O)N(Cc2cccnc2)C(=S)N(Cc2cccnc2)C(=O)c2cc(OC)c(OC)c(OC)c2)cc(OC)c1OC` was run?
Answer: > 100 µM

Question: For `COc1cc(CNCc2cc(OC)c(OC)c(OC)c2)cc(OC)c1OC`, which TGI is on record?
Answer: > 10 µM

Question: `CCOC(=O)CNc1c(OCc2ccccc2)c(=O)c1=O` was tested. Which TGI did it give?
Answer: > 100 µM

Question: `Oc1c(CN2CCOCC2)ccc2cccnc12` was tested. Which TGI did it give?
Answer: > 10 µM

Question: For `Cc1ccc2c(c1)C(C(=O)N[C@@H]1C(=O)N3[C@@H]1SC(C)(C)[C@@H]3C(=O)O)OCCC2` (some centres undefined), which TGI is on record?
Answer: > 100 µM

Question: How did the TGI turn out when `CCOCc1nc2c(OC)cc(-c3nc4ccc(N5CCN(C)CC5)cc4[nH]3)c(OC)c2[nH]1` was run?
Answer: 38 µM

Question: For `CON(C)C(=O)CNC(=O)OCC1c2ccccc2-c2ccccc21`, which TGI is on record?
Answer: > 100 µM

Question: Which TGI does the source give for `CCOC(=O)C(=Cc1[nH]c2ccccc2c1-c1c[nH]c2ccccc12)C(=O)OCC` here?
Answer: 40.8 µM

Question: `CSc1ncnc2c1ncn2C1CC(Oc2ccc(C)cc2)C(COc2ccc(C)cc2)O1` (centres undefined) was tested. Which TGI did it give?
Answer: > 100 µM

Question: Which TGI does the source give for `Cc1ccc(N=Nc2c(O)ccc3cc(S(=O)(=O)O)cc(S(=O)(=O)O)c23)cc1` here?
Answer: > 100 µM

Question: How did the TGI turn out when `O=C(O)Cc1cccc2c(=O)c3ccccc3oc12` was run?
Answer: > 100 µM

Question: How did the TGI turn out when `CCOC(=O)N/N=C(/N)c1cccc([N+](=O)[O-])c1` was run?
Answer: > 100 µM

Question: How did the TGI turn out when `COC1=C(OC)C(=O)C(Cc2c(C)nc3sc(C)cn23)=C(C)C1=O` was run?
Answer: 36 µM

Question: For `CC(=O)OC(/C=C/c1ccccc1)=C(OC(C)C)/C1=C(\c2ccccc2)SCCCSC1=O`, which TGI is on record?
Answer: > 100 µM

Question: Which TGI does the source give for `COc1cccc(-c2ccc3c4c2O[C@H]2C(=O)CC[C@@]5(O)[C@@H](C3)N(CC3CC3)CC[C@]425)c1` here?
Answer: 26.7 µM

Question: With `O=C1/C(=C/c2ccc([N+](=O)[O-])cc2)C(=O)N(c2ccccc2)C1c1ccccc1` (centres undefined) as the molecule, how does the TGI read?
Answer: > 10 µM

Question: How did the TGI turn out when `NC(N)=NCCC[C@H](N)C(=O)NCC(=O)N[C@@H](CC(=O)O)c1ncc(NC(=O)C(F)(F)F)o1` was run?
Answer: > 25 µM

Question: Which TGI does the source give for `Cc1cc(S(=O)(=O)N=C2N(Cc3ccccc3)CCN2Cc2ccccc2)c(S)cc1Cl` here?
Answer: > 100 µM

Question: `Oc1ccc(-c2nc(-c3cccnc3)c(-c3ccc(Cl)cc3)[nH]2)cc1` was tested. Which TGI did it give?
Answer: 23.9 µM

Question: What does the source list for `CSc1ccc2c(cc1=O)[C@@H](NC(=O)c1ccc(N)cc1)CCc1cc(O)c(O)c(O)c1-2`?
Answer: GI50: 31.7 µM and 4.04 µM; TGI: > 100 µM

Question: For `CN1CCC(O)(C(C)(C)C)CC1`, which TGI is on record?
Answer: > 100 µM
